The test system of data set [1] is VCAM-1. Put plainly: In Vitro VCAM-1 Assay (ELISA of VCAM-1 on TNF-α stimulated endothelial cells). The data set is classed as cell-based. The settings on record: Endothelial cell; primary human aortic (HAEC) or pulmonary (HPAEC) endothelial cells, TNF-α (1 ng/ml), approximately 16 hours. On the procedure:
Cell Culture and compound dosing: Cultured primary human aortic (HAEC) or pulmonary (HPAEC) endothelial cells were obtained from Clonetics, Inc., and were used below passage 9. Cells were seeded in 96 well plates such that they would reach 90-95% confluency by the following day. On the following day the cells were stimulated with TNF-α (1 ng/ml) in the presence or absence of compounds dissolved in DMSO such that the final concentration of DMSO is 0.25% or less. To establish a dose curve for each compound, four concentrations in 2- to 5-fold increments were used. Cells were exposed to TNF-α and compounds for approximately 16 hours. The next day the cells were examined under microscope to score for visual signs of toxicity or cell stress.
Following 16 hr exposure to TNF-α and compound the media was discarded and the cells were washed once with Hanks Balanced Salt Solution (HBSS)/Phosphate buffered saline (PBS) (1:1). Primary antibodies against VCAM-1 (0.25 μg/ml in HBSS/PBS+5% FBS) were added and incubated for 30-60 minutes at 37° C. Cells were washed with HBSS/PBS three times, and secondary antibody Horse Radish Peroxidase (HRP)-conjugated goat anti-mouse IgG (1:500 in HBSS/PBS+5% FBS) were added and incubated for 30 minutes at 37° C. Cells were washed with HBSS/PBS four time and TMB substrate were added and incubated at room temperature in the dark until there was adequate development of blue color. The length of time of incubation was typically 5-15 minutes. 2N sulfuric acid was added to stop the color development and the data was collected by reading the absorbance on a BioRad ELISA plate reader at OD 450 nm. The results are expressed as IC50 values (the concentration (micromolar) of compound required to inhibit 50% of the maximal response of the control sample stimulated by TNF-α only).
For orientation: In an ELISA, binding on a coated surface is turned into a signal by an enzyme label.

Some results are limits rather than exact numbers.

What is called IC50 is the point on the concentration scale where inhibition reaches its midpoint. Read a high IC50 as a need for much substance. For orientation: melting point means the temperature, or range, at which the solid turns liquid.

`C=C(C(=O)c1ccc(F)cc1)c1cc(-c2cc3ccccc3s2)c(OC)cc1OC` [Example 51, 2-(5-Benzo[b]thien-2-yl-2,4-dimethoxy-phenyl)-1-(4-fluoro-phenyl)-propenone] gave a melting point of 142 to 144 °C. For the same compound, in data set [1], the IC50 is < 3000 nM. For the compound `C=C(C(=O)c1ccc(C(=O)O)cc1)c1cc(-c2cc3ccccc3s2)ccc1OC` [Example 5, 4-[2-(5-Benzo[b]thien-2-yl-2-methoxy-phenyl)-acryloyl]-benzoic acid], the melting point is 240 to 242 °C (dec.). Further, the half-inhibitory concentration (IC50) in data set [1] is < 1000 nM.

`C=C(C(=O)c1c(OC)ccc(-c2cccs2)c1OC)c1cc(C(C)(C)C)c(O)c(C(C)(C)C)c1` [Example 34, 2-(3,5-Di-tert-butyl-4-hydroxy-phenyl)-1-(2,6-dimethoxy-3-thien-2-yl-phenyl)-propenone] had a melting point of 130 to 132.5 °C. Also, in data set [1], the IC50 was > 10000 nM. The matching figures for `C=C(C(=O)c1c(C)cccc1Cl)c1ccc(C(=O)O)cc1-c1cccs1` [Example 32, 4-[1-(2-Chloro-6-methyl-benzoyl)-vinyl]-3-thien-2-yl-benzoic acid]: 88 °C (dec.) and < 1000 nM.

In the case of `C=C(C(=O)c1ccc(C(=O)O)cc1)c1cc(OC)c(OC)c(-c2cccs2)c1` [Example 49, 4-[2-(3,4-Dimethoxy-5-thien-2-yl-phenyl)-acryloyl]-benzoic acid], the melting point lay within 156 to 157 °C. Moreover, the half-inhibitory concentration (IC50) in data set [1] is < 6000 nM. In the case of `C=C(C(=O)c1c(Cl)cccc1Cl)c1cc(-c2cccs2)ccc1OC` [Example 7, 1-(2,6-Dichloro-phenyl)-2-(2-methoxy-5-thien-2-yl-phenyl)-propenone], the IC50 in data set [1] is < 1000 nM. `C=C(C(=O)c1ccc(C(=O)O)cc1)c1ccc(OC)c(-c2cccs2)c1` [Example 1, 4-[2-(4-Methoxy-3-thien-2-yl-phenyl)-acryloyl]-benzoic acid] had a melting point of 163 to 164 °C. Moreover, the IC50 in data set [1] was < 3000 nM. On to `C=C(C(=O)c1c(C)cccc1C)c1ccccc1-c1cccnc1OC` [Example 39, 1-(2,6-Dimethyl-phenyl)-2-[2-(2-methoxy-pyridin-3-yl)-phenyl]-propenone], for which the IC50 in data set [1] is < 6000 nM. Same read-out and setting: with `C=C(C(=O)c1c(C)cccc1C)c1ccccc1-c1cccs1` [Example 38, 1-(2,6-Dimethyl-phenyl)-2-(2-thien-2-yl-phenyl)-propenone] the figure was < 10000 nM.

With `C=C(C(=O)c1c(OC)ccc(-c2cccs2)c1OC)c1ccccc1OC` [Example 31, 1-(2,6-Dimethoxy-3-thien-2-yl-phenyl)-2-(2-methoxy-phenyl)-propenone], the IC50 in data set [1] is < 1000 nM. The same measure, in the same setting: with `C=C(C(=O)c1cc(-c2cccs2)ccc1OC)c1ccc(C(=O)O)cc1` [Example 54, 4-[1-(2-Methoxy-5-thien-2-yl-benzoyl)-vinyl]-benzoic acid] the figure was < 1000 nM; with `C=C(C(=O)c1ccc(O)cc1)c1cc(-c2cccs2)ccc1OC` [Example 17, 1-(4-Hydroxy-phenyl)-2-(2-methoxy-5-thien-2-yl-phenyl)-propenone], < 1000 nM; with `C=C(C(=O)c1ccc(N(C)S(C)(=O)=O)cc1)c1cc(-c2cccs2)ccc1OC` [Example 20, N-{4-[2-(2-Methoxy-5-thien-2-yl-phenyl)-acryloyl]-phenyl}-N-methyl-methanesulfonamide], < 1000 nM.

On to `C=C(C(=O)c1c(C)cccc1C)c1cc(-c2cccs2)ccc1OC` [Example 29, 1-(2,6-Dimethyl-phenyl)-2-(2-methoxy-5-thien-2-yl-phenyl)-propenone], for which, in data set [1], the IC50 was < 1000 nM. On the same count and under the same terms, the value for `C=C(C(=O)c1ccc(C(=O)O)cc1)c1cc(-c2cccs2)ccc1OC(C)C` [Example 59, 4-[2-(2-Isopropoxy-5-thien-2-yl-phenyl)-acryloyl]-benzoic acid] was < 1000 nM. The same measure, in the same setting: the value for `C=C(C(=O)c1cc(-c2cccs2)ccc1OC)c1ccc([N+](=O)[O-])cc1` [Example 52, 1-(2-Methoxy-5-thien-2-yl-phenyl)-2-(4-nitro-phenyl)-propenone] was < 3000 nM.

For the origin of these results see patent publication US20060063828A1 (priority 2004, published 2006).
